Our source for the TGI and GI50 values is PubChem BioAssay (NCI).

What all share (experiment): growth of human tumour cells (NCI), 48 h
The test system of assay [1] is ACHN renal.
In assay [2] the test system is HOP-62 NSCLC.
The subject of assay [3] is K-562 leukemia.
Assay [4] concerns OVCAR-3 ovarian.
The test system of assay [5] is SF-295 CNS.
The subject of assay [6] is SNB-75 CNS.
Assay [7] relates to UACC-62 melanoma.
For assay [8], the system named is CAKI-1 renal.

Values joined by “and” are separate entries in the source; they are usually repeats but may differ in a detail not shown here. Equal values may be shown once.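 Following 48 hours of exposure in 96-well plates, responses at five concentrations were used to interpolate endpoints linearly. The concentration for 50% growth inhibition is given as GI50. TGI is the concentration that stops growth completely.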

Take `CN(C)CC/C(=N\Nc1c(Cl)cccc1Cl)c1ccccc1`: the TGI in assay [1] was 50.5 µM; in assay [2], greater than 100 µM; in assay [3], 52.3 µM; in assay [4], 65.9 µM; in assay [5], 35.9 µM; in assay [6], 55.6 µM. Further, the TGI in assay [7] came to 29.9 µM.

For the compound `CCOC1=NC(=O)CC(c2ccccc2)S1` (configuration not stated), the TGI in assay [1], in assay [8], in assay [3], in assay [4], in assay [5] and in assay [7] was greater than 100 µM each time.

Regarding `COc1ccc2c(c1)CCC1C3(CCCC21C)OCCO3` (configuration not stated), the TGI in assay [1] was 78.9 µM; in assay [8], greater than 100 µM; in assay [2], 28.4 µM; in assay [3], 42.1 µM; in assay [4], 35.5 µM; in assay [5] it was 40.8 µM. Further, the TGI in assay [6] was found to be 60.3 µM; in assay [7] it was 38 µM.

For `COC(=O)C1=NC(=S)NC(c2ccccc2)C1c1nc2ccccc2s1` (configuration not stated), the TGI in assay [1], in assay [8], in assay [2], in assay [4], in assay [5] and in assay [6] was greater than 100 µM in each case. For the same compound, the TGI in assay [7] is greater than 100 µM.

Consider `CC1=C2C(=O)O[C@@H](c3ccoc3)[C@]2(C)CCC1`, for which the TGI in assay [1], in assay [8], in assay [2], in assay [3], in assay [4] and in assay [5] was greater than 100 µM in each case. Further, the TGI in assay [6] and in assay [7] was greater than 100 µM throughout.

In the case of `Cc1cccc(NC(=O)C(=O)Cc2nc3ccccc3[nH]c2=O)c1C`, the TGI in assay [1], in assay [8], in assay [2], in assay [3], in assay [4] and in assay [5] was greater than 100 µM throughout. The TGI in assay [6] and in assay [7] was greater than 100 µM throughout.

On to `Cc1ccc2nc3c(C(=O)NCCN(C)C)cccc3nc2c1`, for which the TGI in assay [1] was 14.9 µM; in assay [8], greater than 31.6 µM; in assay [2] it was 14 µM; in assay [3], 9.27 µM; in assay [4], 32.4 µM; in assay [5], greater than 27.1 µM. Besides, the TGI was 42.9 µM in assay [6] and 16.8 µM in assay [7].

For `CC(C)=CCC/C(=C/CC/C(C)=C/CCc1ccoc1)C(=O)O`, the TGI in assay [1], in assay [2], in assay [3], in assay [4], in assay [5] and in assay [6] was greater than 100 µM each time. In assay [7], this compound displayed a TGI greater than 100 µM.

In the case of `Cc1ccc(S(=O)(=O)n2c(-c3ccccc3)c(-c3ccccc3)c3ccccc32)cc1`, the TGI in assay [1], in assay [2], in assay [3], in assay [4], in assay [5] and in assay [6] was greater than 100 µM each time. Moreover, in assay [7], the TGI was greater than 100 µM.

With `COc1c2c(cc3nc4ccccc4nc13)CCC(C(C)(C)O)C2` (configuration not stated), the TGI in assay [1], in assay [8], in assay [2], in assay [3], in assay [4] and in assay [5] was greater than 100 µM throughout. Further, the TGI in assay [6] and in assay [7] was greater than 100 µM throughout.

As for `COc1cc(OC(=O)c2c(O)cc(O)c(O)c2C)cc(C)c1C(=O)Oc1cc(C)c(C(=O)O)c(O)c1`, the TGI in assay [1], in assay [8], in assay [2], in assay [3], in assay [4] and in assay [5] was greater than 100 µM each time. Moreover, the TGI in assay [6] and in assay [7] was greater than 100 µM throughout.

For the compound `Cc1ccc(Nc2nc3c(s2)C(=O)c2ccccc2C3=O)c(C)c1`, the TGI in assay [1] worked out at 30.6 µM; in assay [8] it was 29 µM; in assay [2], 30.5 µM; in assay [3], 43 µM; in assay [4], 27.5 µM; in assay [5], 29.4 µM. The TGI was 30.1 µM in assay [6] and 29.5 µM in assay [7].

For `CC(=O)OC[C@]12CC[C@H]3[C@@H](C[C@H]4O[C@]45[C@@H](O)C=CC(=O)[C@]35C)[C@@H]1CC[C@@H]2[C@H](C)[C@H]1CC(C)=C(C)C(=O)O1`, the GI50 was 0.498 µM and 0.515 µM in assay [1]; 0.385 µM and 0.266 µM in assay [8]; 1.51 µM in assay [2]; 0.272 µM and 0.201 µM in assay [3]; 0.314 µM and 0.176 µM in assay [4]; 0.974 µM and 1.89 µM in assay [5]. Also, the GI50 in assay [6] was 0.261 µM and 0.264 µM; in assay [7] it was 0.481 µM and 0.479 µM. The TGI is 0.792 µM and 1.16 µM in assay [1]; 0.831 µM and 1.08 µM in assay [8]; 3.52 µM in assay [2]; 0.849 µM and 0.979 µM in assay [3]; 0.842 µM and 0.548 µM in assay [4]; 4.23 µM in assay [5]. In addition, the TGI is 0.953 µM and 1.25 µM in assay [6]; 1.58 µM in assay [7].

For `COC(=O)c1cc(Br)c(Br)n1C`, the TGI in assay [1], in assay [8], in assay [2], in assay [3], in assay [4] and in assay [5] was greater than 100 µM throughout. Moreover, the TGI in assay [6] and in assay [7] was greater than 100 µM throughout.

Regarding `Cc1cc(C)nc(NS(=O)(=O)c2ccc(Nc3c4ccccc4nc4c(C(=O)Nc5ccc(S(=O)(=O)Nc6cc(C)on6)cc5)cccc34)cc2)n1`, the TGI in assay [1] is greater than 100 µM; in assay [8], 46.3 µM; in assay [2], 44.2 µM; in assay [3], 80.1 µM; in assay [4] it was 33.3 µM; in assay [5] it was 63.1 µM. Besides, the TGI in assay [6] was 69 µM; in assay [7] it was 34 µM.
